In EP3345917A1, “ANTIPROTOZOAL COMPOUNDS” (Bacoba AG, priority 2017, dated 2018):
Non-standard residues stand in square brackets, D forms with d. Residues, ends and D or L forms follow the SMILES beside them. *: point of attachment. NHCH2CH2(piperidin-1-yl) = C1CCN(CCN*)CC1; NH((S)CH(Me)CH2NMe2) = C[C@@H](CN(C)C)N*; NH(2-morpholinoethyl) = C(CN1CCOCC1)N*; Cyclopentanecarbonyl = O=C(C1CCCC1)*; Gly(octyl) = CCCCCCCC[C@H](N)C(=O)O; X11 = C[C@@H]1CN(CCN*)C[C@H](C)O1; NHCH2CH2NMe2 = CN(C)CCN*; Hexanoyl = CCCCCC(=O)*; Aib = CC(C)(N)C(=O)O; X2 = CN(C)CCN(C)*; βAla = NCCC(=O)O

Legend:
Plasmodium falciparum = assay: 3H-hypoxanthine incorporation assay against Plasmodium falciparum; assay type: cell-based; details: In vitro inhibition, read-out: P.falc NF5
Protocol: (§1) Tests were done in triplicate.
IC50 values were calculated by linear interpolation.

[1] = Cytotoxicity assay on L6-cells (Alamar Blue); details: rat, Cytotox L6, Cytotoxicity against rat myoblast cells (L6)
[2] = system: Axenically grown Leishmania donovani amastigotes (strain MHOM/ET/67/L82); assay: Axenic Leishmania donovani amastigote resazurin assay; assay type: cell-based; details: In vitro inhibition, read-out: L.don. ax
Outline: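 IC50 values derive from resazurin fluorescence (ex 536 nm, em 588 nm), expressed relative to the negative control, after 2-4 hours of plate development. Axenic amastigotes of strain MHOM/ET/67/L82 were used; each test run in triplicate.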

[3] = system: intracellular Leishmania donovani (L.don. InMac); assay: Intracellular Leishmania donovani assay (L.don. InMac); assay type: cell-based; details: In vitro inhibition
Text: as §1

[4] = system: Trypanosoma cruzi trypomastigote forms (Tulahuen strain); assay: Intracellular Trypanosoma cruzi assay in L6-cells, beta-galactosidase/CPRG readout; assay type: cell-based; details: In vitro inhibition, read-out: T.cruzi.
Outline: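 Readout was β-galactosidase cleavage of CPRG, read photometrically at 540 nm after 2–6 h colour development, giving IC50 values. Parasites: LacZ-expressing Tulahuen C2C4 strain grown in rat L6 myoblasts; run in triplicate.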

[5] = system: Trypanosoma brucei rhodesiense (STIB 900 strain); assay: Alamar Blue assay against Trypanosoma brucei rhodesiense grown in axenic medium; assay type: cell-based; details: In vitro inhibition, read-out: T.b.rhod.
Outline: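 Alamar Blue-based IC50 determination, in triplicate, on axenically grown STIB 900 trypanosomes. Melarsoprol included as reference.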

SMILES | IC50 (Plasmodium falciparum) | IC50 at 70 h [1] | IC50 [2] | IC50 [3] | IC50 [4] | IC50 [5]
CCCCCCCC[C@H](NC(=O)[C@@H]1CCCN1C(=O)CCCCC)C(=O)N[C@H](C(=O)NC(C)(C)C(=O)N[C@@H](CC(C)C)C(=O)N[C@@H](CC(C)C)C(=O)NC(C)(C)C(=O)NC(C)(C)C(=O)NCCC(=O)N[C@@H](C)CN(C)C)[C@@H](C)O [Compound 5604, (2S)-N-[(1S,2R)-1-[(1-{[(1S)-1-{[(1S)-1-{[1-({1-[(2-{[(2S)-1-(dimethylamino)propan-2-yl]carbamoyl}ethyl)carbamoyl]-1-methylethyl}carbamoyl)-1-methylethyl]carbamoyl}-3-methylbutyl]carbamoyl}-3-methylbutyl]carbamoyl}-1-methylethyl)carbamoyl]-2-hydroxypropyl]-2-{[(2S)-1-hexanoylpyrrolidin-2-yl]formamido}decanamide] (Hexanoyl-P[Gly(octyl)]T[Aib]LL[Aib][Aib][βAla]-{NH((S)CH(Me)CH2NMe2)}) | 3.6 nM | 1290 nM | 4 nM | 228 nM | 426 nM | 0.8 nM
CCCCCCCC[C@H](NC(=O)[C@@H]1CCCN1C(=O)CCCCC)C(=O)N[C@@H](CC(C)C)C(=O)NC(C)(C)C(=O)N[C@@H](CC(C)C)C(=O)N[C@@H](CC(C)C)C(=O)NC(C)(C)C(=O)NC(C)(C)C(=O)NCCC(=O)N[C@@H](C)CN(C)C [Compound 5632, (2S)-N-[(1S)-1-[(1-{[(1S)-1-{[(1S)-1-{[1-({1-[(2-{[(2S)-1-(dimethylamino)propan-2-yl]carbamoyl}ethyl)carbamoyl]-1-methylethyl}carbamoyl)-1-methylethyl]carbamoyl}-3-methylbutyl]carbamoyl}-3-methylbutyl]carbamoyl}-1-methylethyl)carbamoyl]-3-methylbutyl]-2-{[(2S)-1-hexanoylpyrrolidin-2-yl]formamido}decanamide] (Hexanoyl-P[Gly(octyl)]L[Aib]LL[Aib][Aib][βAla]-{NH((S)CH(Me)CH2NMe2)}) | 0.1 nM | 162 nM | 1.3 nM | 52.1 nM | 10.2 nM | 0.4 nM
CCCCCCCC[C@H](NC(=O)[C@@H]1CCCN1C(C)=O)C(=O)N[C@@H](CC(C)C)C(=O)NC(C)(C)C(=O)N[C@@H](CC(C)C)C(=O)N[C@@H](CC(C)C)C(=O)NC(C)(C)C(=O)NC(C)(C)C(=O)NCCC(=O)N[C@@H](C)CN(C)C [Compound 5638, (2S)-2-{[(2S)-1-acetylpyrrolidin-2-yl]formamido}-N-[(1S)-1-[(1-{[(1S)-1-{[(1S)-1-{[1-({1-[(2-{[(2S)-1-(dimethylamino)propan-2-yl]carbamoyl}ethyl)carbamoyl]-1-methylethyl}carbamoyl)-1-methylethyl]carbamoyl}-3-methylbutyl]carbamoyl}-3-methylbutyl]carbamoyl}-1-methylethyl)carbamoyl]-3-methylbutyl]decanamide] (Ac-P[Gly(octyl)]L[Aib]LL[Aib][Aib][βAla]-{NH((S)CH(Me)CH2NMe2)}) | 0.6 nM | 634 nM | 7 nM | 224 nM | 98.5 nM | 0.4 nM
CCCCCCCC[C@H](NC(=O)C1CCCC1)C(=O)N[C@H](C(=O)NC(C)(C)C(=O)N[C@@H](CC(C)C)C(=O)N[C@@H](CC(C)C)C(=O)NC(C)(C)C(=O)NC(C)(C)C(=O)NCCC(=O)N[C@@H](C)CN(C)C)[C@@H](C)O [Compound 5641, (2S)-2-(cyclopentylformamido)-N-[(1S,2R)-1-[(1-{[(1S)-1-{[(1S)-1-{[1-({1-[(2-{[(2S)-1-(dimethylamino)propan-2-yl]carbamoyl}ethyl)carbamoyl]-1-methylethyl}carbamoyl)-1-methylethyl]carbamoyl}-3-methylbutyl]carbamoyl}-3-methylbutyl]carbamoyl}-1-methylethyl)carbamoyl]-2-hydroxypropyl]decanamide] (Cyclopentanecarbonyl-[Gly(octyl)]T[Aib]LL[Aib][Aib][βAla]-{NH((S)CH(Me)CH2NMe2)}) | 72.9 nM | 1670 nM | 8.2 nM | 862 nM | 1400 nM | 3.9 nM
CCCCCCCC[C@H](NC(=O)[C@@H]1CCCN1C(=O)CCCCC)C(=O)N[C@@H](CC(C)C)C(=O)NC(C)(C)C(=O)N[C@@H](CC(C)C)C(=O)N[C@@H](CC(C)C)C(=O)NC(C)(C)C(=O)NC(C)(C)C(=O)NCCC(=O)NCCN(C)C [Compound 5643, (2S)-N-[(1S)-1-[(1-{[(1S)-1-{[(1S)-1-{[1-({1-[(2-{[2-(dimethylamino)ethyl]carbamoyl}ethyl)carbamoyl]-1-methylethyl}carbamoyl)-1-methylethyl]carbamoyl}-3-methylbutyl]carbamoyl}-3-methylbutyl]carbamoyl}-1-methylethyl)carbamoyl]-3-methylbutyl]-2-{[(2S)-1-hexanoylpyrrolidin-2-yl]formamido}decanamide] (Hexanoyl-P[Gly(octyl)]L[Aib]LL[Aib][Aib][βAla]-NHCH2CH2NMe2) | 3 nM | 862 nM | 3.6 nM | 107 nM | 89.8 nM | 4.9 nM
CCCCCCCC[C@H](NC(=O)[C@@H]1CCCN1C(=O)CCCCC)C(=O)N[C@@H](CC(C)C)C(=O)NC(C)(C)C(=O)N[C@@H](CC(C)C)C(=O)N[C@@H](CC(C)C)C(=O)NC(C)(C)C(=O)NC(C)(C)C(=O)NCCC(=O)N(C)CCN(C)C [Compound 5644, (2S)-N-[(1S)-1-[(1-{[(1S)-1-{[(1S)-1-{[1-({1-[(2-{[2-(dimethylamino)ethyl](methyl)carbamoyl}ethyl)carbamoyl]-1-methylethyl}carbamoyl)-1-methylethyl]carbamoyl}-3-methylbutyl]carbamoyl}-3-methylbutyl]carbamoyl}-1-methylethyl)carbamoyl]-3-methylbutyl]-2-{[(2S)-1-hexanoylpyrrolidin-2-yl]formamido}decanamide] (Hexanoyl-P[Gly(octyl)]L[Aib]LL[Aib][Aib][βAla]-X2) | 26 nM | 1240 nM | 148 nM | 844 nM | 1470 nM | 208 nM
CCCCCCCC[C@H](NC(=O)[C@@H]1CCCN1C(=O)CCCCC)C(=O)N[C@@H](CC(C)C)C(=O)NC(C)(C)C(=O)N[C@@H](CC(C)C)C(=O)N[C@@H](CC(C)C)C(=O)NC(C)(C)C(=O)NC(C)(C)C(=O)NCCC(=O)NCCN1CCOCC1 [Compound 5646, (2S)-2-{[(2S)-1-hexanoylpyrrolidin-2-yl]formamido}-N-[(1S)-3-methyl-1-[(1-methyl-1-{[(1S)-3-methyl-1-{[(1S)-3-methyl-1-{[1-methyl-1-({1-methyl-1-[(2-{[2-(morpholin-4-yl)ethyl]carbamoyl}ethyl)carbamoyl]ethyl}carbamoyl)ethyl]carbamoyl}butyl]carbamoyl}butyl]carbamoyl}ethyl)carbamoyl]butyl]decanamide] (Hexanoyl-P[Gly(octyl)]L[Aib]LL[Aib][Aib][βAla]-{NH(2-morpholinoethyl)}) | 22.4 nM | 1460 nM | 1.6 nM | 99.5 nM | 392 nM | 212 nM
CCCCCCCC[C@H](NC(=O)[C@@H]1CCCN1C(=O)CCCCC)C(=O)N[C@@H](CC(C)C)C(=O)NC(C)(C)C(=O)N[C@@H](CC(C)C)C(=O)N[C@@H](CC(C)C)C(=O)NC(C)(C)C(=O)NC(C)(C)C(=O)NCCC(=O)NCCN1CCCCC1 [Compound 5647, (2S)-2-{[(2S)-1-hexanoylpyrrolidin-2-yl]formamido}-N-[(1S)-3-methyl-1-[(1-methyl-1-{[(1S)-3-methyl-1-{[(1S)-3-methyl-1-{[1-methyl-1-({1-methyl-1-[(2-{[2-(piperidin-1-yl)ethyl]carbamoyl}ethyl)carbamoyl]ethyl}carbamoyl)ethyl]carbamoyl}butyl]carbamoyl}butyl]carbamoyl}ethyl)carbamoyl]butyl]decanamide] (Hexanoyl-P[Gly(octyl)]L[Aib]LL[Aib][Aib][βAla]-{NHCH2CH2(piperidin-1-yl)}) | 0.6 nM | 182 nM | 3 nM | 62.1 nM | 13.4 nM | 3.6 nM
CCCCCCCC[C@H](NC(=O)[C@@H]1CCCN1C(=O)CCCCC)C(=O)N[C@@H](CC(C)C)C(=O)NC(C)(C)C(=O)N[C@@H](CC(C)C)C(=O)N[C@@H](CC(C)C)C(=O)NC(C)(C)C(=O)NC(C)(C)C(=O)NCCC(=O)NCCN1C[C@@H](C)O[C@@H](C)C1 [Compound 5648, (2S)-N-[(1S)-1-[(1-{[(1S)-1-{[(1S)-1-({1-[(1-{[2-({2-[(2R,6S)-2,6-dimethylmorpholin-4-yl]ethyl}carbamoyl)ethyl]carbamoyl}-1-methylethyl)carbamoyl]-1-methylethyl}carbamoyl)-3-methylbutyl]carbamoyl}-3-methylbutyl]carbamoyl}-1-methylethyl)carbamoyl]-3-methylbutyl]-2-{[(2S)-1-hexanoylpyrrolidin-2-yl]formamido}decanamide] (Hexanoyl-P[Gly(octyl)]L[Aib]LL[Aib][Aib][βAla]-X11) | 26.9 nM | 2280 nM | 0.5 nM | 186 nM | 229 nM | 54.7 nM
